Assay results published in ChEMBL document CHEMBL1201862, “PubChem BioAssay data set” (2004).
The source made the active and inactive calls.

Tests used:
[1] = biological target: T1, Estrogen receptor (Homo sapiens, UniProt P03372); assay: potentiators of ERα–SRC-1 coactivator binding, dose response, biochemical, TR-FRET, ERα LBD (AID 737)
T1 sequence (P03372 whole entry): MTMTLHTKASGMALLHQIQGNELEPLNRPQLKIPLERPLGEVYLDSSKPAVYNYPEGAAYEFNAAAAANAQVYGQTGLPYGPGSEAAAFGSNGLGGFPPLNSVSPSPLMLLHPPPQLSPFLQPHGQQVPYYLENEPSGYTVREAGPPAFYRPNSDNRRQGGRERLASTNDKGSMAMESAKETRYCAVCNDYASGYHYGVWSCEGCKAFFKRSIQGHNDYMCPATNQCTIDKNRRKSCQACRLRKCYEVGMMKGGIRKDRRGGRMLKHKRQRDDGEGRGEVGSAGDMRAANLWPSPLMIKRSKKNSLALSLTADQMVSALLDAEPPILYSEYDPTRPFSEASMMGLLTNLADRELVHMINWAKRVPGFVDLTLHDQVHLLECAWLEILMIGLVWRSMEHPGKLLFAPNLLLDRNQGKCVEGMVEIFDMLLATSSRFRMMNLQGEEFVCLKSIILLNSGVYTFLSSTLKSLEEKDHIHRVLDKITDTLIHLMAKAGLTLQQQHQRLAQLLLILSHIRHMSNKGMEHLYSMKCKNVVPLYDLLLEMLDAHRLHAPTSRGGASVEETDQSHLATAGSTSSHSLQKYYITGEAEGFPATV

[2] = biological target: T2, Caspase-3 (Homo sapiens, UniProt P42574); assay: procaspase-3 activation potency of dual hits, dose response, counter-screen for dual procaspase-3/7 activator project, biochemical, absorbance, PC-3 D3A mutant (AID 504328)
T2 sequence (P42574 whole entry): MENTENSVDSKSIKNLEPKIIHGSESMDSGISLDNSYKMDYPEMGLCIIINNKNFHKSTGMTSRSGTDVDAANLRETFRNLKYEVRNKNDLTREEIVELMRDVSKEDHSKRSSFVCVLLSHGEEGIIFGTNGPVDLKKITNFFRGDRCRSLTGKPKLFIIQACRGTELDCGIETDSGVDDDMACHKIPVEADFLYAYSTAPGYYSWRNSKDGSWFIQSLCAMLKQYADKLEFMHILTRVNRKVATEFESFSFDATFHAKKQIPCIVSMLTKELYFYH

[3] = biological target: T3, Caspase-7 (Homo sapiens, UniProt P55210); assay: procaspase-7 activators, dose response, dual procaspase-3/-7 activator project, biochemical, absorbance, human (AID 504330)
T3 sequence (P55210 whole entry): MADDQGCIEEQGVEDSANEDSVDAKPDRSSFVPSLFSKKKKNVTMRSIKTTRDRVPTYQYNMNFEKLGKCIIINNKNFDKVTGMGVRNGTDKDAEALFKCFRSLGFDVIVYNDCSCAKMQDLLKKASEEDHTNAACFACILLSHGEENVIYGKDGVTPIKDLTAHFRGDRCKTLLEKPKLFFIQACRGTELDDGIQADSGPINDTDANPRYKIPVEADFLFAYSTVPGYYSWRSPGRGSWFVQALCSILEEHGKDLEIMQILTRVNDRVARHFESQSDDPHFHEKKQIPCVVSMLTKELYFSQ

[4] = A Cell Based Secondary Assay To Explore Cytotoxicity of Compounds that Sensitize Mycobacterium Tuberculosis to Beta-Lactam Antibiotics.; assay type: functional
[5] = biological target: Peroxisome proliferator-activated receptor gamma/Nuclear receptor coactivator 3 (Homo sapiens, UniProt P37231); assay type: functional;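 note: agonist potency for raising coactivator recruitment to the receptor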
[6] = biological target: DNA dC->dU-editing enzyme APOBEC-3G (Homo sapiens, UniProt Q9HC16); assay: Dose Response confirmation of small molecule APOBEC3G DNA Deaminase Inhibitors via a fluorescence-based single-stranded DNA deaminase assay. [Related pubchem assays (depositor defined):AID493012, AID493028]; assay type: functional
[7] = biological target: Peroxisome proliferator-activated receptor gamma/Nuclear receptor coactivator 1 (Homo sapiens, UniProt P37231); assay type: functional;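 note: agonist potency as compounds enhance coactivator SRC-1 recruitment to PPARgamma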
[8] = biological target: T4, Voltage-gated N-type calcium channel alpha-1B subunit/Amyloid beta A4 precursor protein-binding family A member 1 (Homo sapiens, UniProt Q00975+Q02410); assay type: protein assay
[9] = biological target: Peroxisome proliferator-activated receptor gamma/Nuclear receptor coactivator 2 (Homo sapiens, UniProt P37231); assay type: functional;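 note: agonist potency for raising coactivator recruitment to the receptor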
[10] = biological target: T4, Voltage-gated N-type calcium channel alpha-1B subunit/Amyloid beta A4 precursor protein-binding family A member 1; assay type: protein assay; remark: listed apart in the source
[11] = biological target: Cytochrome P450 2D6 (Homo sapiens, UniProt P10635); assay: qHTS Assay for Inhibitors and Substrates of Cytochrome P450 2D6. [Related pubchem assays: 410 ]; assay type: ADME; settings: read-out: Potency
[12] = biological target: T5, Alkaline phosphatase, tissue-nonspecific isozyme (Homo sapiens, UniProt P05186); assay: human TNAP enzyme inhibitors, SAR follow-up, biochemical, luminescent, dose response (AID 1056)
T5 sequence (P05186 whole entry): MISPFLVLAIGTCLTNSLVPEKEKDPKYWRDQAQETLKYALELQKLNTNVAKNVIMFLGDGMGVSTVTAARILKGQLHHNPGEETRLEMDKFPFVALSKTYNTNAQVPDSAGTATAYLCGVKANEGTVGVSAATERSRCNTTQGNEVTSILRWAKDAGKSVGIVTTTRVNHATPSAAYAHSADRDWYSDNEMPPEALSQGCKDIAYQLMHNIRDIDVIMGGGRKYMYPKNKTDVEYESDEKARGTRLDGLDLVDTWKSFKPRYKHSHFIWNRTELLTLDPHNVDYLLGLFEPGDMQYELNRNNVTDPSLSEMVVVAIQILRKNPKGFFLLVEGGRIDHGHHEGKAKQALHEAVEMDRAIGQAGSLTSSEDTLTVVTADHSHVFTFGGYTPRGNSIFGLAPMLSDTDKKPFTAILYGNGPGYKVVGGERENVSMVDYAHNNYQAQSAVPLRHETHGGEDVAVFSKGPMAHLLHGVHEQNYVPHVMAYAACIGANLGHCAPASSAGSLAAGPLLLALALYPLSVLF

[13] = biological target: Alkaline phosphatase, placental type (Homo sapiens, UniProt P05187); assay: PLAP enzyme inhibitors, confirmation, biochemical, luminescence (AID 1512); assay type: functional
[14] = biological target: Glyceraldehyde-3-phosphate dehydrogenase (Homo sapiens, UniProt P04406)
[15] = tested on: HeLa; assay: Cytotoxicity counterscreen assay for transcriptional activators of heat shock protein 70 (Hsp70). [Related pubchem assays: 1203, 1252 ]; assay type: functional; settings: Homo sapiens;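 note: cells exposed to compound for 16 hours before readout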
[16] = Luminescence Cell-Based Dose Retest to Confirm Inhibitors of Cancer Stem Cells. [Related pubchem assays (depositor defined):AID2717, AID2721]; assay type: functional; settings: Homo sapiens
[17] = biological target: Neurotensin receptor type 1 (Homo sapiens, UniProt P30989); assay type: functional;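 note: Image-based confirmatory dose-response assay measuring agonist activity at NTR1; NTR1-expressing U2OS osteosarcoma cells imaged for beta-arrestin GFP spot formation; agonist potency where compounds increase beta-arrestin recruitment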
[18] = microbe, parasite or virus in culture; assay type: functional; settings: Mycobacterium tuberculosis
[19] = THP-1 cell cytotoxicity, dose response, cytotoxicity control for Vif-APOBEC3G degradation inhibitor project, THP-1 cells (AID 1117359); assay type: functional; settings: Human immunodeficiency virus 1, THP-1
[20] = biological target: Cytochrome P450 3A4 (Homo sapiens, UniProt P08684); settings: Potency;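 note: confirmatory qHTS run detecting inhibitors and substrates of CYP3A4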
[21] = biological target: Mu-type opioid receptor (Homo sapiens, UniProt P35372); assay: SAR Analysis of Antagonists of the MOR Receptor using an Image-Based Assay - Set 3. [Related pubchem assays (depositor defined):AID1777, AID1785, AID1786, AID1966, AID2133, AID2136, AID2284, AID2285, AID2420]; assay type: functional
[22] = biological target: Delta-type opioid receptor (Homo sapiens, UniProt P41143); assay: SAR Analysis of Antagonists of the DOR Receptor using an Image-Based Assay - Set 3. [Related pubchem assays (depositor defined):AID1777, AID1785]; assay type: functional;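 note: U2OS cells expressing DOR1 and beta-arrestin GFP stimulated with 100 nM SNC80; imaging of GFP-tagged beta-arrestin moving into spots after receptor activation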
[23] = biological target: T6, Kappa-type opioid receptor (Homo sapiens, UniProt P41145); assay: SAR analysis of small molecule antagonists of the kappa opioid receptor via a luminescent beta-arrestin assay - Set 3. [Related pubchem assays (depositor defined):AID1777, AID1778, AID1785, AID1786, AID1966, AID2133, AID2136, AID2285, AID2495]; assay type: functional
[24] = biological target: T6, Kappa-type opioid receptor; assay: SAR analysis of Antagonists of the Kappa Opioid Receptor (KOR) using an Image-Based Assay - Set 3. [Related pubchem assays (depositor defined):AID1777, AID1785]; assay type: functional
[25] = biological target: DNA dC->dU-editing enzyme APOBEC-3A (Homo sapiens, UniProt P31941); assay: APOBEC3A DNA deaminase inhibitors, dose response, biochemical (AID 504722); assay type: functional
[26] = biological target: Large T antigen (Simian virus 40, UniProt P03070); assay type: functional, Betapolyomavirus macacae;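 note: Confirmatory-stage PubChem screen for compounds that inhibit SV40 T antigen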
[27] = biological target: T7, Short transient receptor potential channel 4 (Mus musculus, UniProt Q9QUQ5); assay: mouse TRPC4 channel inhibitors, dose response, cell-based, HEK293 TRPC4/mu-opioid, Fluo-4 calcium (AID 434942); assay type: functional;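 note: potency of inhibitors blocking the TRPC4 calcium response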
T7 sequence (Q9QUQ5 whole entry): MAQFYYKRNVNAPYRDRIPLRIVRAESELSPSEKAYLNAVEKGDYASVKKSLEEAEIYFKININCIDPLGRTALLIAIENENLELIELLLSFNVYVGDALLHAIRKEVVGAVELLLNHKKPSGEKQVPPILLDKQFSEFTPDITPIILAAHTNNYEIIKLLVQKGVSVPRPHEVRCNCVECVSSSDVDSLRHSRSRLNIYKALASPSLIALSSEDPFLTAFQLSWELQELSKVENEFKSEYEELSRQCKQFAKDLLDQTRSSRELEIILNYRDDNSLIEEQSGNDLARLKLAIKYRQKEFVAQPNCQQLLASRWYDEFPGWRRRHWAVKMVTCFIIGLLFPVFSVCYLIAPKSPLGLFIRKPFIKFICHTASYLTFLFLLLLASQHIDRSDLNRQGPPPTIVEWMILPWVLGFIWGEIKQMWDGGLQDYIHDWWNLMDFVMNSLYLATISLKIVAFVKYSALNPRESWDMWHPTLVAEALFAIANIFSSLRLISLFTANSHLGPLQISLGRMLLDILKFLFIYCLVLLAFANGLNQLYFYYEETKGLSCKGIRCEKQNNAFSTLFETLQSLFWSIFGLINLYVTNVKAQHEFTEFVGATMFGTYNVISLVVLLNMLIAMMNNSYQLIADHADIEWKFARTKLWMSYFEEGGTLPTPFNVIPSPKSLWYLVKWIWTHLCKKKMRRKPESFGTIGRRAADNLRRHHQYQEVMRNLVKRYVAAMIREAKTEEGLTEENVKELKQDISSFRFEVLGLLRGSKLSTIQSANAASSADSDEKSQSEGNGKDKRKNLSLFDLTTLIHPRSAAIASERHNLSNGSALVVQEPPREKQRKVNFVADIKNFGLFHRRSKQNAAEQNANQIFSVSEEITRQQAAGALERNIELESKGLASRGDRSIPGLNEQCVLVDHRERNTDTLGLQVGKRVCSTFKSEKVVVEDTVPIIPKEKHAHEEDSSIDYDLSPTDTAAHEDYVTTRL

DNA dC->dU-editing enzyme APOBEC-3G, sequence (Q9HC16 whole entry): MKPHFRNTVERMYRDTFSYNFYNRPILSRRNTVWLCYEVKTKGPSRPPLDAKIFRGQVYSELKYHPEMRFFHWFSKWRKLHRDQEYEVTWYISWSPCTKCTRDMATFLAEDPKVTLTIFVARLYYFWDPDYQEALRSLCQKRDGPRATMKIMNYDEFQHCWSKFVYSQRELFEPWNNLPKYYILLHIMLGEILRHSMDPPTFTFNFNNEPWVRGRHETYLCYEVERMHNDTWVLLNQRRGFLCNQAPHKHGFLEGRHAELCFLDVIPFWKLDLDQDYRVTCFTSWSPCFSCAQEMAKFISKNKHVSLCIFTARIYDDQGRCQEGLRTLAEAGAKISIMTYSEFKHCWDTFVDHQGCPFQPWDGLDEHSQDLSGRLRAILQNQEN
T4 sequence (Q00975 whole entry): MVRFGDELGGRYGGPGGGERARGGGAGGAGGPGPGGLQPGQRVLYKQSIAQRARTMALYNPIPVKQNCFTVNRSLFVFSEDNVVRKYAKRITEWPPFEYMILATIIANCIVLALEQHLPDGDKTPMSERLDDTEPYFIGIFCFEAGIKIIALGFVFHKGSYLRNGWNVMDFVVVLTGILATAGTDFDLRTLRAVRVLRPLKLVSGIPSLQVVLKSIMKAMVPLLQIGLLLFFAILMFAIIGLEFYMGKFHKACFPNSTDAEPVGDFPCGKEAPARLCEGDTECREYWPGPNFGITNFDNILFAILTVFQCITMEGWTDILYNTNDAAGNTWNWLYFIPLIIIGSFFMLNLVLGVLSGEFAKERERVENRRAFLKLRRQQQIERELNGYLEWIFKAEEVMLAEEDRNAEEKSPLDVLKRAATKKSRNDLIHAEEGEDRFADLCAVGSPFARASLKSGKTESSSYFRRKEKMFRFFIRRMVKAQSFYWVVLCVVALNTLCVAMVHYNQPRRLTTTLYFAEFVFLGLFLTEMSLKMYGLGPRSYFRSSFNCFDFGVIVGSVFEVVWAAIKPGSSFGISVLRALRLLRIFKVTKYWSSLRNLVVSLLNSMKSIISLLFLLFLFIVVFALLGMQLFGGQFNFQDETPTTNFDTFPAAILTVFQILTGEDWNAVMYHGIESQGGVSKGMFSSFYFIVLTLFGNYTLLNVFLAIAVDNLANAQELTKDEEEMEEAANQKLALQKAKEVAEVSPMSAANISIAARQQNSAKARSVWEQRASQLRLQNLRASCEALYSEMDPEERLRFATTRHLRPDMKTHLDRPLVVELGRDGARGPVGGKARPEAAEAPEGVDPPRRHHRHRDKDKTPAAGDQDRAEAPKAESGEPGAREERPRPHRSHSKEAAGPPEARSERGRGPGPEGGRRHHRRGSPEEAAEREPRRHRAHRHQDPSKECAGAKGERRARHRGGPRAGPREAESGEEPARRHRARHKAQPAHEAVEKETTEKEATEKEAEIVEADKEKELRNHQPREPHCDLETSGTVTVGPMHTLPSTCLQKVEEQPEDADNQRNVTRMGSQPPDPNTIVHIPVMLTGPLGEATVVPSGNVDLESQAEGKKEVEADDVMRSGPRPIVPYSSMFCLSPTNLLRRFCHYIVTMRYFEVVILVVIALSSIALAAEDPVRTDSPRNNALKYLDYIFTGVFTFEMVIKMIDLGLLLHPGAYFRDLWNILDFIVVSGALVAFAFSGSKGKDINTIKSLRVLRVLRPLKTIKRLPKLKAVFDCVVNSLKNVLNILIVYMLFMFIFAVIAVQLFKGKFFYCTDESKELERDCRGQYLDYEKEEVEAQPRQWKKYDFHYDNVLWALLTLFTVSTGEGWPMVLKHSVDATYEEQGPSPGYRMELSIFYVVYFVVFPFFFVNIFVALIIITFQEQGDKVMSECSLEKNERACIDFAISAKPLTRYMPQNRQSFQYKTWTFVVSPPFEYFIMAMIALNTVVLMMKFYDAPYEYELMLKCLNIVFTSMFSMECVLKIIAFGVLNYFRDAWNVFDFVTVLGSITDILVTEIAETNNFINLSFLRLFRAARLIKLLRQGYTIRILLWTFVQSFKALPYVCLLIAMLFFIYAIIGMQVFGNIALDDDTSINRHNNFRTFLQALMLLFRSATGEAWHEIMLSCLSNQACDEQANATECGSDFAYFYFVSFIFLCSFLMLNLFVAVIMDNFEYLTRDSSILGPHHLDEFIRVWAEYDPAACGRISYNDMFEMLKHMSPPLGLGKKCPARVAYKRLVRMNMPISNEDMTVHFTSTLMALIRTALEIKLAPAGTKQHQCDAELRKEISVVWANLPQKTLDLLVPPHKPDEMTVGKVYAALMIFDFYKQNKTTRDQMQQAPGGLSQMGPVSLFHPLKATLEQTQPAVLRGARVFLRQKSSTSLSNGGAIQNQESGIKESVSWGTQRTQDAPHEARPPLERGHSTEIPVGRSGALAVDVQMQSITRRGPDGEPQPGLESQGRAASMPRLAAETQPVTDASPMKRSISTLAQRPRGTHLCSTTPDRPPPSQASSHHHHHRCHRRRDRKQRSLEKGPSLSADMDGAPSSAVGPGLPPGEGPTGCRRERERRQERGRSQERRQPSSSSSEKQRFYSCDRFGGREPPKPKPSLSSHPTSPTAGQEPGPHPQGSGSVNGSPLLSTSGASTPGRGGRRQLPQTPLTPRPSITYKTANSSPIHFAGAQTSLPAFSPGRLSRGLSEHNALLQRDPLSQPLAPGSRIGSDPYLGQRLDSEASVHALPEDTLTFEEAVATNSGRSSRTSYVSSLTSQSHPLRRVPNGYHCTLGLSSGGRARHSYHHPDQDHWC
T4 sequence (Q02410 whole entry): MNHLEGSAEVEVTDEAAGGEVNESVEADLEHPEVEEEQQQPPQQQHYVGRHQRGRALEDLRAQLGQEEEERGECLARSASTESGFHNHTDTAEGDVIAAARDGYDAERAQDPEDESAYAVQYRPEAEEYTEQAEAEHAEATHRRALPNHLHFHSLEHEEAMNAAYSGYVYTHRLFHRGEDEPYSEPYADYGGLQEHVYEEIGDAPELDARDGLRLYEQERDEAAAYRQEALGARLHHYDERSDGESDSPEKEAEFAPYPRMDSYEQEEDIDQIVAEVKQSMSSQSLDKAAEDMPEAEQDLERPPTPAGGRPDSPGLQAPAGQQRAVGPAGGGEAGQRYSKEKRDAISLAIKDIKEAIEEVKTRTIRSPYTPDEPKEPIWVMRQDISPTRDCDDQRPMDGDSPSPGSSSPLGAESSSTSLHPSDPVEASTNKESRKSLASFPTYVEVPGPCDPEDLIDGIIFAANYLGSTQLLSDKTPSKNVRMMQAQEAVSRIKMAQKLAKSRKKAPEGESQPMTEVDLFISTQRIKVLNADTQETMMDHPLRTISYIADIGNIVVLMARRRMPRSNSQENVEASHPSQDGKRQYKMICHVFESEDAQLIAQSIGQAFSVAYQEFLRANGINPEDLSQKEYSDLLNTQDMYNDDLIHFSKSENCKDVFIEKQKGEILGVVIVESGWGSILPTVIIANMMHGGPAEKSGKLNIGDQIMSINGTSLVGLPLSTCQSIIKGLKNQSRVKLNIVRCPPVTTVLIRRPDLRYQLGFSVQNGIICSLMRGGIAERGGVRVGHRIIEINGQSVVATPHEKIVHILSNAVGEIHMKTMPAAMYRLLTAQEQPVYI
DNA dC->dU-editing enzyme APOBEC-3A, sequence (P31941 whole entry): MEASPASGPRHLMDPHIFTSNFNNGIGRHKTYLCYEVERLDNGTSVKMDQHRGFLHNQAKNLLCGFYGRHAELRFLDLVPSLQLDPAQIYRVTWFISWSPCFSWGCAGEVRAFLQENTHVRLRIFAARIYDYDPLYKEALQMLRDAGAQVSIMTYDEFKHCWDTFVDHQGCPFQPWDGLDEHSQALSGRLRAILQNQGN
T6 sequence (P41145 whole entry): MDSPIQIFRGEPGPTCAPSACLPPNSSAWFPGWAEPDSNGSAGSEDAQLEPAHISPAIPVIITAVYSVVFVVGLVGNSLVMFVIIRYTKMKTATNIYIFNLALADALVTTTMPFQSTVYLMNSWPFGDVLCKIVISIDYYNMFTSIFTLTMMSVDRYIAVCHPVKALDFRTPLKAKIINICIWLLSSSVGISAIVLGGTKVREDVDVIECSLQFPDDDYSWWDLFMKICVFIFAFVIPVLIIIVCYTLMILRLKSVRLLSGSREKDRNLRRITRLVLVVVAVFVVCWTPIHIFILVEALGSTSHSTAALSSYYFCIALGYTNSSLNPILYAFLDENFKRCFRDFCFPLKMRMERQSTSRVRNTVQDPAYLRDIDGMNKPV
Cytochrome P450 2D6, sequence (P10635 whole entry): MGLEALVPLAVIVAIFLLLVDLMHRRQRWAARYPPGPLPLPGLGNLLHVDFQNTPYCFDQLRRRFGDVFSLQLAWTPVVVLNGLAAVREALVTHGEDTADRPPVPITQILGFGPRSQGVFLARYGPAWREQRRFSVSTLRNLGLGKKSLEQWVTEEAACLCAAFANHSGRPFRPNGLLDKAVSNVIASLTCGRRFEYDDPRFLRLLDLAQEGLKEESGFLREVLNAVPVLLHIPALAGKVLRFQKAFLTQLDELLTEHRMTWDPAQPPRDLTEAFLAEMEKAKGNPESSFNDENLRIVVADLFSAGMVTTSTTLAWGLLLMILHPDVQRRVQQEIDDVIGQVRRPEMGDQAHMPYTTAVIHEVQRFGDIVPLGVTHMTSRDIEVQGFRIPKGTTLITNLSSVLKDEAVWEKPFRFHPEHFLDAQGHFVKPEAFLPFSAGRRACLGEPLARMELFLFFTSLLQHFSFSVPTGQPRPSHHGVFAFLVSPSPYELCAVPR
Glyceraldehyde-3-phosphate dehydrogenase, sequence (P04406 whole entry): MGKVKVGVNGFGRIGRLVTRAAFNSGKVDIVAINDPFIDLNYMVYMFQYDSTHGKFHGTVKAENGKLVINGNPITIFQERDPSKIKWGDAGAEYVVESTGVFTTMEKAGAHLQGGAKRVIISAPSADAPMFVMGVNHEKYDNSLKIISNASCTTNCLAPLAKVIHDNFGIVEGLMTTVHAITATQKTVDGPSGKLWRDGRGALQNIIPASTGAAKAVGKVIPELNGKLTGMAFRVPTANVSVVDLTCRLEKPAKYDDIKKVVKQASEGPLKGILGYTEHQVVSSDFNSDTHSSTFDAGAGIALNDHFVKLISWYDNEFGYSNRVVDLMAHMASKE

COc1nc(-c2ccc(Cl)cc2)ccc1-c1noc(-c2ccco2)n1
EC50 [1]: 10.9 µM (active)

C=CCNC1=C(Cl)C(=O)N(c2cccc(Cl)c2Cl)C1=O
EC50 [2]: > 85.3 µM (inactive) | EC50 [3]: > 85.3 µM (inactive)

Cc1ccc(/C=C2/SC(=S)N(CC(=O)Nc3ncc(Cc4ccc(C)cc4)s3)C2=O)cc1
CC50 [4]: 37.9 µM (active)

CCc1ccc(N2CSC3=C(C#N)C(c4cccs4)CC(=O)N3C2)cc1 (stereo unspecified)
EC50 [5]: 77.8 µM (not active) | IC50 [6]: 8.18 µM (active) | EC50 [7]: 63.3 µM (not active) | IC50 [8]: 13.1 µM (active) | EC50 [9]: 50.7 µM (not active) | IC50 [10]: > 50 µM (inactive)

COC(=O)C/C=C1\c2ccccc2C(OC)C1C (stereo unspecified)
AC50 [11]: 79.4 nM (inconclusive)

CC1(C)CC(=O)c2c(/C=C/c3ccccc3)n[nH]c2C1
IC50 [12]: > 100 µM (inactive) | IC50 [13]: > 100 µM (inactive) | IC50 [14]: > 100 µM (not active)

O=C(NCC1COc2ccccc2O1)C1CCCN(S(=O)(=O)c2c[nH]cn2)C1 (stereo unspecified)
CC50 [15]: > 99 µM (not active)

CC(C)c1ccc(N2C(=O)NC(=O)/C(=C\C=C\c3ccco3)C2=O)cc1
AC50 [16]: 1.23 µM (active) | EC50 [17]: 19 µM (active) | CC50 [18]: 23.8 µM (active) | CC50 [19]: 37.8 µM (active)

O=C(O)CCn1ccnc1-c1ccccc1
EC50 [1]: 12.5 µM (not active)

CC1Cc2c(-c3ccccc3)nc3c(c2CO1)CN(CCOc1ccccc1)CC3 (stereo unspecified)
AC50 [20]: 3.98 µM (inconclusive) | AC50 [11]: 5010 nM (inconclusive)

Cc1cccc(N2CCN(CCNC(=O)Cn3c(=O)c4cccn4c4cccnc43)CC2)c1C
IC50 [21]: 6.33 µM (active) | IC50 [22]: > 32 µM (inactive) | IC50 [23]: > 20 µM (inactive) | IC50 [24]: > 32 µM (inactive)

CCn1ncc(/C=N/NC(=O)c2ccc3c(c2)c(C)c(C)n3Cc2ccccc2)c1C
IC50 [13]: > 100 µM (inactive)

Cc1cc(-c2nnc(S)n2/N=C/c2cccc([N+](=O)[O-])c2)[nH]n1
IC50 [6]: 3.68 µM (active) | IC50 [25]: > 100 µM (inactive)

Cc1ccc(/C=N/n2c(S)nnc2-c2ccco2)cc1
IC50 [6]: 3.02 µM (active) | IC50 [25]: > 100 µM (inactive) | IC50 [26]: 33.6 µM (active)

COc1ccc(/C=C/C(=O)NCC(=O)N/N=C/c2cc(Br)ccc2OCc2ccccc2)cc1
CC50 [4]: > 40 µM (active)

Cc1ccn2c(-c3csc(NCc4ccco4)n3)c(C)nc2c1
EC50 [27]: 1.5 µM (active) | IC50 [8]: 8.87 µM (active) | IC50 [10]: > 50 µM (inactive)
